Patent US4549022A, “4-Pyridone-3-carboxylic acid derivatives” (Hoffmann-La Roche Inc., priority 1978, dated 1985)
Values after ≈ are worked out from the molar mass of the structure shown. Read-outs that look alike come from different tables or passages of the source.

Assays:
Escherichia coli [1] = assay: Escherichia coli in vitro MIC (Minimum Inhibitory Concentration); type: cell-based
Escherichia coli [2] = assay: Escherichia coli in vivo (mouse) ED50
LD50 (acute toxicity) = type: in vivo
central nervous system = assay: Turning rat test (minimum active dosage); type: in vivo
[3] = vs d-amphetamine and d-methamphetamine, see Table 1

CCn1cc(C(=O)O)c(=O)cc1-c1ccc(SC)cc1 [1-ethyl-6-(4-methylthiophenyl)-4-oxo-1,4-dihydronicotinic acid]
MIC (Escherichia coli [1]; read-out: MIC): 2.5 µg/mL (≈ 8.64 µM) | ED50 (Escherichia coli [2]; po, read-out: ED50): 82 mg/kg

CCn1cc(C(=O)O)c(=O)cc1-c1ccc(NC)c(C)c1 [1-ethyl-6-(3-methyl-4-methylaminophenyl)-4-oxo-1,4-dihydronicotinic acid]
MIC (Escherichia coli [1]; read-out: MIC): 0.6 µg/mL (≈ 2.1 µM) | ED50 (Escherichia coli [2]; po, read-out: ED50): 3.5 mg/kg

CCn1cc(C(=O)O)c(=O)cc1-c1ccc(N(C)C)cc1 [1-ethyl-6-[4-(dimethylamino)-phenyl]-4-oxo-1,4-dihydronicotinic acid]
MIC (Escherichia coli [1]; read-out: MIC): 0.6 µg/mL (≈ 2.1 µM) | ED50 (Escherichia coli [2]; po, read-out: ED50): 8.8 mg/kg

CCn1cc(C(=O)O)c(=O)cc1-c1ccc(OC)cc1 [1-ethyl-6-(4-methoxyphenyl)-4-oxo-1,4-dihydronicotinic acid]
MIC (Escherichia coli [1]; read-out: MIC): 2.5 µg/mL (≈ 9.15 µM) | ED50 (Escherichia coli [2]; po, read-out: ED50): > 100 mg/kg

CCn1cc(C(=O)O)c(=O)cc1-c1ccc(N2CCCC2)cc1 [1-ethyl-6-(4-pyrrolidinophenyl)-4-oxo-1,4-dihydronicotinic acid]
MIC (Escherichia coli [1]; read-out: MIC): 1.2 µg/mL (≈ 3.84 µM) | ED50 (Escherichia coli [2]; po, read-out: ED50): 19 mg/kg

CCn1cc(C(=O)O)c(=O)cc1-c1ccc(-n2cccc2)cc1 [1-ethyl-6-(4-pyrrolophenyl)-4-oxo-1,4-dihydronicotinic acid]
MIC (Escherichia coli [1]): 1.2 µg/mL (≈ 3.89 µM) | ED50 (Escherichia coli [2]; p.o.): 34 mg/kg

O=C1CN(/N=C/c2ccc([N+](=O)[O-])o2)C(=O)N1 [Nitrofurantoin, reference compound]
MIC (Escherichia coli [1]; read-out: MIC): 5 µg/mL (≈ 21 µM) | ED50 (Escherichia coli [2]; po, read-out: ED50): > 100 mg/kg

CCn1cc(C(=O)O)c(=O)cc1-c1ccc2c(c1)OCO2 [1-ethyl-6-(3,4-methylenedioxyphenyl)-4-oxo-1,4-dihydronicotinic acid]
MIC (Escherichia coli [1]; read-out: MIC): 2.5 µg/mL (≈ 8.7 µM) | ED50 (Escherichia coli [2]; po, read-out: ED50): > 100 mg/kg

CCn1cc(C(=O)O)c(=O)cc1-c1ccccc1 [1-ethyl-4-oxo-6-phenyl-1,4-dihydronicotinic acid]
LD50 (LD50 (acute toxicity); in vivo, po): 300 to 600 mg/kg | LD50 compared with d-amphetamine and d-methamphetamine (LD50 (acute toxicity); [3]): substantially lower LD50 | LD50 compared with nomifensin (LD50 (acute toxicity); vs nomifensin, see Table 1): about the same LD50 | Turning rat test minimum active dosage (central nervous system; Arch. int. Pharmacodyn. Ther. 217, 118-130 (1975)): 1 | activity compared with d-amphetamine and d-methamphetamine (central nervous system; [3]): about the same strong activity | activity compared with nomifensin (central nervous system; vs nomifensin, see Table 1): substantially superior activity to nomifensin
